PubChem BioAssay (NCI)
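GI50: concentration for 50% inhibition of growth. TGI denotes the concentration required for complete inhibition of growth.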

What was measured:
Experiment in all cases: inhibition of tumour cell growth, NCI panel, 384-well format
[1] = test system: DU-145 prostate
[2] = test system: RPMI-8226 leukemia
[3] = test system: EKVX NSCLC
[4] = test system: HT29 colon
[5] = test system: 786-0 renal
[6] = test system: CCRF-CEM leukemia
[7] = test system: OVCAR-4 ovarian
[8] = test system: LOX IMVI melanoma
[9] = test system: U251 glioblastoma
[10] = test system: NCI/ADR-RES ovarian
[11] = test system: RXF 393 renal
[12] = test system: NCI-H226 lung
[13] = test system: SK-MEL-5 melanoma
[14] = test system: HOP-92 NSCLC
[15] = test system: KM12 colon
[16] = test system: HCT-116 colon
[17] = test system: UACC-257 melanoma
[18] = test system: SW-620 colon
[19] = test system: TK-10 renal
[20] = test system: MOLT-4 leukemia
[21] = test system: BT-549 breast
[22] = test system: NCI-H322M lung
[23] = test system: ACHN renal
[24] = test system: NCI-H23 lung
[25] = test system: MDA-MB-435 melanoma
[26] = test system: HCT-15 colon
[27] = test system: SK-OV-3 ovarian
[28] = test system: NCI-H460 NSCLC
[29] = test system: M14 melanoma

O=c1cc(-c2cccc3c2Sc2ccccc2S3)oc(N2CCOCC2)c1 was tested. Which GI50 [1] did it give?
Its GI50 is 12.9 µM.

And the TGI [1]?
The TGI was 25.7 µM.

What about the GI50 [2] of the same molecule?
Its GI50 is 3.35 µM.

What about the TGI [2] of the same molecule?
Its TGI is 13.9 µM.

And the GI50 [3]?
The GI50 was 11.1 µM.

And the TGI [3]?
The TGI was 23.2 µM.

What about the GI50 [4] of the same molecule?
Its GI50 is 12 µM.

What about the TGI [4] of the same molecule?
The TGI was 24.7 µM.

What about the GI50 [5] of the same molecule?
Its GI50 is 10.6 µM.

And the TGI [5]?
The TGI was 22.6 µM.

What about the GI50 [6] of the same molecule?
Its GI50 is 7.99 µM.

What about the TGI [6] of the same molecule?
Its TGI is 20.5 µM.

And the GI50 [7]?
Its GI50 is 12.9 µM.

What about the TGI [7] of the same molecule?
Its TGI is 25.6 µM.

And the GI50 [8]?
The GI50 was 12.9 µM.

What about the TGI [8] of the same molecule?
The TGI was 25.6 µM.

And the GI50 [9]?
The GI50 was 12.7 µM.

And the TGI [9]?
Its TGI is 25.5 µM.

What about the GI50 [10] of the same molecule?
The GI50 was 11.1 µM.

And the TGI [10]?
The TGI was 23.2 µM.

And the GI50 [11]?
Its GI50 is 4.89 µM.

What about the TGI [11] of the same molecule?
The TGI was 17.6 µM.

And the GI50 [12]?
Its GI50 is 12.7 µM.

And the TGI [12]?
Its TGI is 25.3 µM.

And the GI50 [13]?
The GI50 was 10.7 µM.

And the TGI [13]?
The TGI was 22.7 µM.

What about the GI50 [14] of the same molecule?
Its GI50 is 10.1 µM.

And the TGI [14]?
The TGI was 21.7 µM.

And the GI50 [15]?
The GI50 was 5.64 µM.

What about the TGI [15] of the same molecule?
The TGI was 17.7 µM.

And the GI50 [16]?
Its GI50 is 9.36 µM.

And the TGI [16]?
Its TGI is 21.6 µM.

And the GI50 [17]?
Its GI50 is 10.2 µM.

And the TGI [17]?
The TGI was 21.9 µM.

What about the GI50 [18] of the same molecule?
The GI50 was 15.9 µM.

And the TGI [18]?
Its TGI is 29.6 µM.

What about the GI50 [19] of the same molecule?
Its GI50 is 12 µM.

And the TGI [19]?
The TGI was 24.4 µM.

What about the GI50 [20] of the same molecule?
The GI50 was 7.2 µM.

And the TGI [20]?
Its TGI is 19.9 µM.

What about the GI50 [21] of the same molecule?
Its GI50 is 7.8 µM.

And the TGI [21]?
Its TGI is 20.5 µM.

And the GI50 [22]?
Its GI50 is 11 µM.

What about the TGI [22] of the same molecule?
The TGI was 23.1 µM.

And the GI50 [23]?
Its GI50 is 14.8 µM.

And the TGI [23]?
The TGI was 28.1 µM.

And the GI50 [24]?
Its GI50 is 16 µM.

And the TGI [24]?
Its TGI is 29.6 µM.

And the GI50 [25]?
Its GI50 is 5.13 µM.

And the TGI [25]?
Its TGI is 16.3 µM.

What about the GI50 [26] of the same molecule?
The GI50 was 7.02 µM.

What about the TGI [26] of the same molecule?
Its TGI is 19.8 µM.

What about the GI50 [27] of the same molecule?
Its GI50 is 15.2 µM.

What about the TGI [27] of the same molecule?
Its TGI is 28.7 µM.

What about the GI50 [28] of the same molecule?
Its GI50 is 14.4 µM.

And the TGI [28]?
The TGI was 28 µM.

And the GI50 [29]?
Its GI50 is 10.6 µM.

And the TGI [29]?
Its TGI is 22.5 µM.
